Assay results from US5723468A, “6-membered ring fused imidazoles as muscarinic agents” (priority 1996, dated 1998).

Assays:
[1] = biological target: T1, M1 acetylcholine receptors (ml receptors in CHO cells) (Homo sapiens, UniProt P11229); assay: stimulation of phosphoinositide (PI) hydrolysis in transfected CHO cells; assay type: cell-based; conditions: 1 h, read-out: % PI Hydrolysis ml receptors in CHO cells 30 × Ki (μM), carb = 100%
T1 sequence (P11229 1-460): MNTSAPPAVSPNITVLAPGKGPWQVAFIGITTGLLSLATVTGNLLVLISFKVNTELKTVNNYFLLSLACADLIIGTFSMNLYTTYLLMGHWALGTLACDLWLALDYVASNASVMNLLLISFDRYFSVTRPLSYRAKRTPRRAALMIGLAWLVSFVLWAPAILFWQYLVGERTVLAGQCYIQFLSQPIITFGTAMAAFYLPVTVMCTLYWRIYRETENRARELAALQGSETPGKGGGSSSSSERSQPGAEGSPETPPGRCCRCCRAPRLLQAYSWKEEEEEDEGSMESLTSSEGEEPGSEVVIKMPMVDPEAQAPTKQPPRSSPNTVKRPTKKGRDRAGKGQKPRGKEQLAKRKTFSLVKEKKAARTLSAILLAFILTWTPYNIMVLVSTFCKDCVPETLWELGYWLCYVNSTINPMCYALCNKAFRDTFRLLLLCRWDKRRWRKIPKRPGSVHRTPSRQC

[2] = test system: mild to moderate Alzheimer's Disease; conditions: cited from earlier work; for improvement in memory: patients with mild to moderate Alzheimer's Disease

Row | Compound | Emax [1] | improvement in memory [2] | adverse side effects ([2]; especially at the higher doses where it is most effective)
1 | Cn1cnc2c(O[C@@H]3CN4CC[C@H]3C4)nccc21 (relative stereo) [Example 1, endo-4-(1-Aza-bicyclo[2.2.1]hept-3-yloxy)-1-methyl-1H-imidazol[4,5-c]pyridine] | 25% | – | –
2 | Cn1cnc2c(O[C@@H]3CN4CC[C@H]3C4)nccc21 (single isomer, unassigned) [Example 3, (-)-endo-4-(1-Aza-bicyclo[2.2.1]hept-3-yloxy)-1methyl-1H-imidazol[4,5-c]pyridine] | 20.6% | – | –
3 | c1ccc(Cn2cnc3c(OC4CN5CCC4CC5)nccc32)cc1 (single isomer, unassigned; (-)) [Example 7, (-)-3-(1-Benzyl-1H-imidazol[4,5-c]pyridin-4-yloxy)-1-aza-bicyclo[2,2,2]octane] | 18.4% | – | –
4 | c1ccc(Cn2cnc3c(OC4CN5CCC4CC5)nccc32)cc1 (stereo not shown) [Example 5, 3-(1-Benzyl-1H-imidazo[4,5-c]pyridin-4-yloxy)-1-aza-bicyclo[2,2,2]octane] | 6.8% | – | –
5 | COC(=O)C1=CCCN(C)C1 [arecoline] | – | demonstrated memory improvement in patients with mild to moderate Alzheimer's Disease | –
6 | Nc1c2c(nc3ccccc13)CCCC2 [tacrine] | – | improvement in memory can be shown in patients with mild to moderate Alzheimer's Disease | adverse side effects especially at the higher doses
